In PubChem BioAssay AID1259407 (Chemical Carcinogenesis Research Information System (CCRIS), 2018) one finds mutagenic call data, which are given here for 4 molecules.

SMILES strings stand for the structures. Active and inactive are the calls of the source. No rule for the calls is given here.

The subject of the data set is CCRIS mutagenicity, Ames/micronucleus/aberration tests. In words: CCRIS mutagenicity studies.
Setting [1] is: Test System: AMES SALMONELLA TYPHIMURIUM, Strain/Indicator: TA98, Metabolic Activation: NONE, Method: STANDARD PLATE.
Setting [2] is: Test System: AMES SALMONELLA TYPHIMURIUM, Strain/Indicator: TA100, Metabolic Activation: NONE, Method: STANDARD PLATE.
Setting [3] is: Test System: AMES SALMONELLA TYPHIMURIUM, Strain/Indicator: TA1535, Metabolic Activation: NONE, Method: STANDARD PLATE.

On to `c1ccc(Nc2ccc(Nc3ccccc3)cc2)cc1`, for which the mutagenic call (End Point: IN VITRO CHROMOSOMAL ABERRATIONS, Test System: CHINESE HAMSTER LUNG CELLS (CHL), Metabolic Activation: RAT, LIVER, S-9, KC-400) is “inactive; negative”; the mutagenic call (End Point: IN VITRO CHROMOSOMAL ABERRATIONS, Test System: CHINESE HAMSTER OVARY CELLS (CHO), Metabolic Activation: NONE) was “inactive; negative”; the mutagenic call (End Point: IN VITRO CHROMOSOMAL ABERRATIONS, Test System: CHINESE HAMSTER OVARY CELLS (CHO), Metabolic Activation: RAT, LIVER, S-9, AROCLOR 1254) was “inactive; negative”; the mutagenic call (End Point: IN VITRO CHROMOSOMAL ABERRATIONS, Test System: CHL CELLS, Metabolic Activation: RAT, LIVER, S-9, SODIUM PHENOBARBITAL AND 5,6-BENZOFLAVONE) was “inactive; negative; authors report equivocal results for structural changes at 0.08 and 0”; the mutagenic call (Test System: AMES SALMONELLA TYPHIMURIUM, Strain/Indicator: TA98, Metabolic Activation: HAMSTER, LIVER, S-9, AROCLOR 1254 (30%), Method: PREINCUBATION) is “active; positive”; the mutagenic call (Test System: AMES SALMONELLA TYPHIMURIUM, Strain/Indicator: TA98, Metabolic Activation: NONE, Method: PREINCUBATION) is “inactive; negative”. Further, the mutagenic call runs as follows: under setting [1], “inactive; negative”; (Test System: AMES SALMONELLA TYPHIMURIUM, Strain/Indicator: TA98, Metabolic Activation: RAT, LIVER, S-9, AROCLOR 1254 (30%), Method: PREINCUBATION) “active; positive”; (Test System: AMES SALMONELLA TYPHIMURIUM, Strain/Indicator: TA98, Metabolic Activation: S-9, Method: STANDARD PLATE) “inactive; negative”; (Test System: AMES SALMONELLA TYPHIMURIUM, Strain/Indicator: TA100, Metabolic Activation: HAMSTER, LIVER, S-9, AROCLOR 1254 (30%), Method: PREINCUBATION) “inactive; negative”; (Test System: AMES SALMONELLA TYPHIMURIUM, Strain/Indicator: TA100, Metabolic Activation: NONE, Method: PREINCUBATION) “inactive; negative”; under setting [2], “inactive; negative”. Moreover, the mutagenic call by setting is: (Test System: AMES SALMONELLA TYPHIMURIUM, Strain/Indicator: TA100, Metabolic Activation: RAT, LIVER, S-9, AROCLOR 1254 (30%), Method: PREINCUBATION) “inactive; negative”; (Test System: AMES SALMONELLA TYPHIMURIUM, Strain/Indicator: TA100, Metabolic Activation: S-9, Method: STANDARD PLATE) “inactive; negative”.
For the molecule `CCCON=O`, the mutagenic call was “inactive; negative” (Test System: AMES SALMONELLA TYPHIMURIUM, Strain/Indicator: TA98, Metabolic Activation: HAMSTER, LIVER, S-9, AROCLOR 1254, Method: STANDARD PLATE); “inactive; negative” under setting [1]; “inactive; negative” (Test System: AMES SALMONELLA TYPHIMURIUM, Strain/Indicator: TA98, Metabolic Activation: RAT, LIVER, S-9, AROCLOR 1254, Method: STANDARD PLATE); “active; positive” (Test System: AMES SALMONELLA TYPHIMURIUM, Strain/Indicator: TA100, Metabolic Activation: HAMSTER, LIVER, S-9, AROCLOR 1254, Method: STANDARD PLATE); “inactive; negative” under setting [2]; “active; positive” (Test System: AMES SALMONELLA TYPHIMURIUM, Strain/Indicator: TA100, Metabolic Activation: RAT, LIVER, S-9, AROCLOR 1254, Method: STANDARD PLATE). Moreover, the mutagenic call is “active; positive” (Test System: AMES SALMONELLA TYPHIMURIUM, Strain/Indicator: TA1535, Metabolic Activation: HAMSTER, LIVER, S-9, AROCLOR 1254, Method: STANDARD PLATE); “active; positive” under setting [3]; “active; positive” (Test System: AMES SALMONELLA TYPHIMURIUM, Strain/Indicator: TA1535, Metabolic Activation: RAT, LIVER, S-9, AROCLOR 1254, Method: STANDARD PLATE); “inactive; negative” (Test System: AMES SALMONELLA TYPHIMURIUM, Strain/Indicator: TA1537, Metabolic Activation: HAMSTER, LIVER, S-9, AROCLOR 1254, Method: STANDARD PLATE); “inactive; negative” (Test System: AMES SALMONELLA TYPHIMURIUM, Strain/Indicator: TA1537, Metabolic Activation: NONE, Method: STANDARD PLATE); “inactive; negative” (Test System: AMES SALMONELLA TYPHIMURIUM, Strain/Indicator: TA1537, Metabolic Activation: RAT, LIVER, S-9, AROCLOR 1254, Method: STANDARD PLATE). In addition, the mutagenic call by setting is: (Test System: MOUSE LYMPHOMA, Strain/Indicator: L5178Y (TK+/TK-), Metabolic Activation: NONE, Method: SUSPENSION/PLATE) “active; positive. reevaluation of results: inconclusive”; (Test System: MOUSE LYMPHOMA, Strain/Indicator: L5178Y (TK+/TK-), Metabolic Activation: RAT, LIVER, S-9, AROCLOR 1254, Method: SUSPENSION/PLATE) “active; positive. reevaluation of results: positive”; (Test System: Mouse lymphoma, Strain/Indicator: L5178Y (tk+/tk-), Metabolic Activation: None, Method: Suspension/plate) “active; positive”; (Test System: Mouse lymphoma, Strain/Indicator: L5178Y (tk+/tk-), Metabolic Activation: Rat, Liver, S-9, Aroclor 1254, Method: Suspension/plate) “active; positive”.
With `CCCCCCCCCCCCN=C(N)N`, the mutagenic call was “inactive; negative” (End Point: In vitro chromosomal aberrations, Test System: Cultured human (male) lymphocytes, Metabolic Activation: None); “inactive; negative” (End Point: In vitro chromosomal aberrations, Test System: Cultured human (male) lymphocytes, Metabolic Activation: S-9); “inactive; negative” (End Point: In vivo micronucleus, Test System: Blood erythrocytes, Species: Mouse, Strain/Sex: ICR (male and female), 5-20/sex/dose, Route: Oral); “inactive; negative” (End Point: In vivo micrunucleus, Test System: Bone marrow polychromatic erythrocytes, Species: Mouse, Strain/Sex: Males and females, Route: Oral); “inactive; negative” (Test System: Ames Salmonella typhimurium, Strain/Indicator: TA98, Metabolic Activation: None, Method: Plate incorporation); “inactive; negative” (Test System: Ames Salmonella typhimurium, Strain/Indicator: TA98, Metabolic Activation: Rat, Liver, S-9, Aroclor, Method: Plate incorporation). The mutagenic call runs as follows: (Test System: Ames Salmonella typhimurium, Strain/Indicator: TA100, Metabolic Activation: None, Method: Plate incorporation) “inactive; negative”; (Test System: Ames Salmonella typhimurium, Strain/Indicator: TA100, Metabolic Activation: Rat, Liver, S-9, Aroclor, Method: Plate incorporation) “inactive; negative”; (Test System: Ames Salmonella typhimurium, Strain/Indicator: TA1535, Metabolic Activation: None, Method: Plate incorporation) “inactive; negative”; (Test System: Ames Salmonella typhimurium, Strain/Indicator: TA1535, Metabolic Activation: Rat, Liver, S-9, Aroclor, Method: Plate incorporation) “inactive; negative”; (Test System: Ames Salmonella typhimurium, Strain/Indicator: TA1537, Metabolic Activation: None, Method: Plate incorporation) “inactive; negative”; (Test System: Ames Salmonella typhimurium, Strain/Indicator: TA1537, Metabolic Activation: Rat, Liver, S-9, Aroclor, Method: Plate incorporation) “inactive; negative”. Also, the mutagenic call is, setting by setting: (Test System: Chinese hamster ovary (CHO) cells, Strain/Indicator: CHO/6-Thioguanine, Metabolic Activation: None) “inactive; negative”; (Test System: Chinese hamster ovary (CHO) cells, Strain/Indicator: CHO/6-Thioguanine, Metabolic Activation: S-9) “inactive; negative”; (Test System: E. coli, Strain/Indicator: WP2uvrA, Metabolic Activation: None, Method: Plate incorporation) “inactive; negative”; (Test System: E. coli, Strain/Indicator: WP2uvrA, Metabolic Activation: Rat, Liver, S-9, Method: Plate incorporation) “inactive; negative”.
Consider `CNC(=O)Oc1cccc2c1OC(C)(C)C2`, for which the mutagenic call is, setting by setting: (End Point: CHROMOSOMAL ABERRATIONS, Test System: BONE MARROW, Species: MOUSE, Strain/Sex: SWISS/MALE, Route: GAVAGE) “active; positive (structural changes)”; (End Point: IN VIVO MICRONUCLEUS, Test System: BONE MARROW POLYCHROMATIC ERYTHROCYTES, Species: MOUSE, Strain/Sex: KM/MALE, FEMALE, Route: IP INJECTION) “inactive; negative”; (Test System: AMES SALMONELLA TYPHIMURIUM, Strain/Indicator: TA97A, Metabolic Activation: NONE, Method: STANDARD PLATE) “inactive; negative”; under setting [1], “inactive; negative”; under setting [2], “inactive; negative”; (Test System: AMES SALMONELLA TYPHIMURIUM, Strain/Indicator: TA102, Metabolic Activation: NONE, Method: STANDARD PLATE) “inactive; negative”. The mutagenic call reads like this: (Test System: AMES SALMONELLA TYPHIMURIUM, Strain/Indicator: TA104, Metabolic Activation: NONE, Method: STANDARD PLATE) “inactive; negative”; under setting [3], “inactive; negative”.
